For one compound, IC50 results are on record in patent US20090285773A1, “Hepatitis C Virus Inhibitors” (Bristol-Myers Squibb Company, priority 2008, published 2009).

Holding throughout (assay type): biochemical
The target in assay [1] is T1, human neutrophil elastase (HNE) (Homo sapiens, UniProt P08246).
T1 sequence (P08246 30-267): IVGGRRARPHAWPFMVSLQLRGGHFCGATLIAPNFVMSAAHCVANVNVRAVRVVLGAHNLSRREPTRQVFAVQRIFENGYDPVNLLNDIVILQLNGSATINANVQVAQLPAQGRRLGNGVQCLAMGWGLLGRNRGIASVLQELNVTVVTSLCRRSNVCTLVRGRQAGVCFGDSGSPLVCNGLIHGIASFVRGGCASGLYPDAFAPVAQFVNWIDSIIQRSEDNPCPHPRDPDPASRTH
As to the kind of experiment: Specificity assay, human neutrophil elastase. To be noted: read-out: HLE activity in the specificity assays. As for the experimental part: (§1) The specificities of compounds of the present disclosure were determined against a variety of serine proteases: human neutrophil elastase (HNE), porcine pancreatic elastase (PPE) and human pancreatic chymotrypsin and one cysteine protease: human liver cathepsin B. In all cases a 96-well plate format protocol using a fluorometric Amino-Methyl-Coumarin (AMC) substrate specific for each enzyme was used as described previously (PCT Patent Application No. WO 00/09543) with some modifications to the serine protease assays. All enzymes were purchased from Sigma, EMDbiosciences while the substrates were from Bachem, Sigma and EMDbiosciences.
(§2) Compound concentrations varied from 100 to 0.4 μM depending on their potency. The enzyme assays were each initiated by addition of substrate to enzyme-inhibitor pre-incubated for 10 min at room temperature and hydrolysis to 15% conversion as measured on cytofluor. […]
(§3) The percentage of inhibition was calculated using the formula: […]

Assay [2] concerns human pancreatic chymotrypsin. The experiment in a line: Specificity assay, chymotrypsin. To be noted: read-out: Chymotrypsin activity in the specificity assays. On the procedure: as §1, §2, §3
Another assay deals with T2, human liver cathepsin B (Homo sapiens, UniProt P07858).
T2 construct: host or cells: human liver
The experiment in a line: Specificity assay, cathepsin B. To be noted: read-out: Cathepsin B activity in the specificity assays. On the procedure: as §1, §2, §3

The target of the next assay is T3, NS3/4A protease complex (UniProt P27958).
T3 construct: fused on or other part: three-lysine solubilising tail at the C-terminus of NS4A; probably a His tag from pET21b (Ni-NTA purification)
As to the kind of experiment: HCV NS3/4A protease complex enzyme assay (strain not stated). To be noted: Table 2; strain and unit inferred. The source says:
The purpose of this in vitro assay was to measure the inhibition of HCV NS3 protease complexes, derived from the BMS strain, H77 strain or J4L6S strain, as described above, by compounds of the present disclosure. This assay provides an indication of how effective compounds of the present disclosure would be in inhibiting HCV NS3 proteolytic activity.
In order to monitor HCV NS3/4A protease activity, an NS3/4A peptide substrate was used. The substrate was RET S1 (Resonance Energy Transfer Depsipeptide Substrate; AnaSpec, Inc. cat #22991)(FRET peptide), described by Taliani et al. in Anal. Biochem. 240(2):60-67 (1996). The sequence of this peptide is loosely based on the NS4A/NS4B natural cleavage site for the HCV NS3 protease except there is an ester linkage rather than an amide bond at the cleavage site. The peptide also contains a fluorescence donor, EDANS, near one end of the peptide and an acceptor, DABCYL, near the other end. The fluorescence of the peptide is quenched by […] resonance energy transfer (RET) between the donor and the acceptor, but as the NS3 protease cleaves the peptide the products are released from RET quenching and the fluorescence of the donor becomes apparent.
The peptide substrate was incubated with one of the three recombinant NS3/4A protease complexes, in the absence or presence of a compound of the present disclosure. The inhibitory effects of a compound were determined by monitoring the formation of fluorescent reaction product in real time using a Cytofluor Series 4000.
Assay buffer: 50 mM HEPES, pH 7.5; 0.15 M NaCl; 0.1% Triton; 15% Glycerol; 10 mM βME. Substrate: 2 μM final concentration (from a 2 mM stock solution in DMSO stored at −20° C.). HCV NS3/4A protease type 1a (1b), 2-3 nM final concentration (from a 5 μM stock solution in 25 mM HEPES, pH 7.5, 20% glycerol, 300 mM NaCl, 0.2% Triton-X100, 10 mM βME). For compounds with potencies approaching the assay limit, the assay was made more sensitive by adding 50 μg/ml Bovine Serum Albumin (Sigma) to the assay buffer and reducing the end protease concentration to 300 pM.
The assay was performed in a 96-well polystyrene black plate from Falcon. Each well contained 25 μl NS3/4A protease complex in assay buffer, 50 μl of a compound of the present disclosure in 10% DMSO/assay buffer and 25 μl substrate in assay buffer. A control (no compound) was also prepared on the same assay plate. The enzyme complex was mixed with compound or control solution for 1 min before initiating the enzymatic reaction by the addition of substrate. The assay plate was read immediately using the Cytofluor Series 4000 (Perspective Biosystems). The instrument was set to read an emission of […] at 25° C. Reactions were generally followed for approximately 15 min.
The percent inhibition was calculated with the following equation: […]
where δF is the change in fluorescence over the linear range of the curve. A non-linear curve fit was applied to the inhibition-concentration data, and the 50% effective concentration (IC50) was calculated by the use of Excel XLfit software using the equation, y=A+((B−A)/(1+((C/x)̂D))).

T3 sequence (P27958 1027-1657, one chain of several): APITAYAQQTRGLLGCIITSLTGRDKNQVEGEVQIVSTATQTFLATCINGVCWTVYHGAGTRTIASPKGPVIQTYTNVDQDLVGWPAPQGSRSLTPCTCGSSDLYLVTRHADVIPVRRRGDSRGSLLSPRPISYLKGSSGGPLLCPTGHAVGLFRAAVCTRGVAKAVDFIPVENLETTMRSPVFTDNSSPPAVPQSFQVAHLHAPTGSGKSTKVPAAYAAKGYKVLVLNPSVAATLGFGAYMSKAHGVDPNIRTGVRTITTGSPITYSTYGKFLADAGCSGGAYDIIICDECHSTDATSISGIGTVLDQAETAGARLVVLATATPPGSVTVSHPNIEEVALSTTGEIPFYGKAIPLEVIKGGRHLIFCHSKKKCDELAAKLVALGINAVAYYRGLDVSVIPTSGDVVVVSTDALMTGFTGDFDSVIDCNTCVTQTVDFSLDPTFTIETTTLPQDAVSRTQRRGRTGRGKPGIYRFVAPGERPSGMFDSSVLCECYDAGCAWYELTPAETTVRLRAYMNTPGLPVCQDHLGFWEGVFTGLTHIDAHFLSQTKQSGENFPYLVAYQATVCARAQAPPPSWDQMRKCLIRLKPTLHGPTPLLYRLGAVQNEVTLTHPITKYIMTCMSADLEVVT

`COc1ccc2c(O[C@@H]3C[C@H]4C(=O)N[C@]5(C(=O)NS(=O)(=O)C6CC6)C[C@H]5/C=C\CCCCC[C@H](Nc5ccc(OC)nc5)C(=O)N4C3)nccc2c1` (single isomer, unassigned) [Compound 1]: the IC50 in assay [1] is 1500 nM; in assay [2] it was 25000 nM; on human liver cathepsin B it was above 25000 nM; on NS3/4A protease complex, 7 nM.
